Measurements: the supplement of paper PMC13380429
± gives the standard deviation of the averaged measurements.

Assays:
Details in all cases: 72 h
Vero E6 [1] = experiment: drug sensitivity score (DSS) for viability; higher = more toxic; extreme values may be limits of the assay
HepG2 [2] = experiment: as above
U2OS [3] = experiment: as above
Caco-2 [4] = experiment: as above
Calu-3 [5] = experiment: as above
Vero E6 [6] = experiment: cell viability relative to DMSO; higher = less toxic
HepG2 [7] = experiment: as above
U2OS [8] = experiment: as above
Caco-2 [9] = experiment: as above
Calu-3 [10] = experiment: as above
Vero E6 [11] = experiment: relative viability EC50 (midpoint between 100% and the lowest measured viability); higher = less toxic
HepG2 [12] = experiment: as above
U2OS [13] = experiment: as above
Caco-2 [14] = experiment: as above
Calu-3 [15] = experiment: as above

SMILES | drug sensitivity score (Vero E6 [1]) | drug sensitivity score (HepG2 [2]) | drug sensitivity score (U2OS [3]) | drug sensitivity score (Caco-2 [4]) | drug sensitivity score (Calu-3 [5]) | cell viability (Vero E6 [6]; 1 nM) [%] | cell viability (Vero E6 [6]; 10 nM) [%] | cell viability (Vero E6 [6]; 100 nM) [%] | cell viability (Vero E6 [6]; 1000 nM) [%] | cell viability (Vero E6 [6]; 10000 nM) [%] | cell viability (HepG2 [7]; 1 nM) [%] | cell viability (HepG2 [7]; 10 nM) [%] | cell viability (HepG2 [7]; 100 nM) [%] | cell viability (HepG2 [7]; 1000 nM) [%] | cell viability (HepG2 [7]; 10000 nM) [%] | cell viability (U2OS [8]; 1 nM) [%] | cell viability (U2OS [8]; 10 nM) [%] | cell viability (U2OS [8]; 100 nM) [%] | cell viability (U2OS [8]; 1000 nM) [%] | cell viability (U2OS [8]; 10000 nM) [%] | cell viability (Caco-2 [9]; 1 nM) [%] | cell viability (Caco-2 [9]; 10 nM) [%] | cell viability (Caco-2 [9]; 100 nM) [%] | cell viability (Caco-2 [9]; 1000 nM) [%] | cell viability (Caco-2 [9]; 10000 nM) [%] | cell viability (Calu-3 [10]; 1 nM) [%] | cell viability (Calu-3 [10]; 10 nM) [%] | cell viability (Calu-3 [10]; 100 nM) [%] | cell viability (Calu-3 [10]; 1000 nM) [%] | cell viability (Calu-3 [10]; 10000 nM) [%] | relative viability EC50 (Vero E6 [11]) [µM] | relative viability EC50 (HepG2 [12]) [µM] | relative viability EC50 (U2OS [13]) [µM] | relative viability EC50 (Caco-2 [14]) [µM] | relative viability EC50 (Calu-3 [15]) [µM]
Clc1ccc(C(Cn2ccnc2)OCc2csc3c(Cl)cccc23)c(Cl)c1 (stereo not given) [sertaconazole] | 0 | 0 | 0 | 0.1 | 0 | 102 | 102 | 105 | 105 | 99.5 | 116 | 96.8 | 102 | 105 | 100 | 94.1 | 95.4 | 98.9 | 91.4 | 88.6 | 97 | 101 | 95 | 95.6 | 85.4 | 106 | 96.1 | 106 | 95.1 | 96.1 | > 10 | > 10 | > 10 | > 10 | > 10
Cc1cccc(Oc2cnc(=O)[nH]c2)c1 [tolimidone] | 0 | 0 | 0 | 0 | 0 | 108 | 95.4 | 90.3 | 95.7 | 91.2 | 111 | 95.4 | 80.8 | 94.1 | 98 | 103 | 98.4 | 103 | 99.9 | 104 | 111 | 95.7 | 94.8 | 95.9 | 102 | 108 | 93.8 | 92.2 | 99.7 | 95.8 | > 10 | > 10 | > 10 | > 10 | > 10
CC(C)(C)NC(=O)[C@@H](c1cccnc1)N(C(=O)c1ccco1)c1ccc(C(C)(C)C)cc1 [ML188] | 0 | 0 | 0 | 0 | 0 | 93.1 | 97.7 | 103 | 108 | 97.6 | 96.3 | 101 | 92.1 | 106 | 95 | 93.9 | 100 | 96.6 | 101 | 98.8 | 99.7 | 95 | 98.2 | 101 | 89.9 | 93.6 | 93.4 | 96.9 | 102 | 89.7 | > 10 | > 10 | > 10 | > 10 | > 10
CNC(=O)c1ccccc1Nc1nc(Nc2ccc(N3CCOCC3)cc2OC)ncc1Cl [NVP-TAE226] | 6.8 | 13.5 | 7.9 | 9.8 | 6.9 | 99.6 | 97.7 | 96.3 | 66.7 | 48.4 | 114 | 99.6 | 91.3 | 33.1 | 20.8 | 99.9 | 100 | 94.1 | 69 | 22 | 96 | 104 | 88.3 | 54.1 | 44.2 | 93.1 | 90.8 | 86.2 | 74.5 | 41.9 | 0.645 | 0.356 | 1.26 | 0.295 | 0.706
CN1C(=O)C(F)=C[C@]2(C)[C@H]3CC[C@]4(C)[C@@H](C(=O)NCc5nc6cccnc6[nH]5)CC[C@H]4[C@@H]3CC[C@@H]12 [MK-0773] | 0 | 0.9 | 0 | 1.8 | 0 | 99.2 | 102 | 96.2 | 104 | 104 | 91.1 | 108 | 93 | 91.4 | 87.9 | 99 | 99.4 | 98.8 | 95.4 | 95.9 | 102 | 92.4 | 100 | 83.3 | 87.7 | 103 | 103 | 101 | 97.7 | 100 | > 10 | > 10 | > 10 | > 10 | > 10
C=CCC1(CC(C)C)C(=O)NC(=O)NC1=O [butalbital] | 0 | 0 | 0 | 0 | 0 | 105 | 106 | 118 | 109 | 89.9 | 108 | 99.6 | 92.5 | 109 | 94.8 | 95.1 | 97.6 | 98.8 | 94.3 | 112 | 82.1 | 114 | 80.1 | 105 | 102 | 94.5 | 96.7 | 102 | 103 | 114 | > 10 | > 10 | > 10 | > 10 | > 10
Nc1nonc1/C(=N/O)Nc1ccc(F)c(Cl)c1 [IDO5L] | 0 | 0 | 0 | 0 | 0 | 106 | 102 | 96.7 | 98.8 | 114 | 92.8 | 97.8 | 104 | 89.9 | 91.2 | 93.1 | 95.7 | 102 | 95.5 | 102 | 101 | 95.2 | 115 | 87.7 | 109 | 92.5 | 96 | 108 | 89.6 | 114 | > 10 | > 10 | > 10 | > 10 | > 10
CC(C)NC[C@@H](O)COc1ccccc1-n1cccc1 (racemic) [isamoltane] | 0 | 0 | 0 | 0 | 0 | 105 | 97.7 | 96.1 | 96.3 | 102 | 97.1 | 100 | 108 | 105 | 104 | 96.8 | 99 | 97.4 | 107 | 102 | 96.3 | 97.7 | 93.1 | 103 | 107 | 98.2 | 99.2 | 94.9 | 97.1 | 98.3 | > 10 | > 10 | > 10 | > 10 | > 10
Cc1csc(S(=O)(=O)N(CC(C)C)c2cc3c(cc2OCc2ccc(C(=O)O)cc2)CCC3)n1 [ONO-8130] | 0 | 0 | 0 | 0 | 0 | 107 | 102 | 99.3 | 97 | 98.6 | 110 | 95.3 | 96.8 | 94.8 | 93.6 | 97.9 | 103 | 97.5 | 101 | 95.1 | 99 | 104 | 96.4 | 99.2 | 91.6 | 98.5 | 101 | 97.6 | 98.5 | 99.5 | > 10 | > 10 | > 10 | > 10 | > 10
N[C@H](C(=O)O)c1ccc(O)c(C(=O)O)c1 [3-carboxy-4-hydroxyphenylglycine-(S)] | 0 | 0 | 0 | 0 | 0 | 104 ± 7.1 | 103.7 ± 0.35 | 99 ± 2.3 | 106 ± 3.2 | 101 ± 2.1 | 102.2 ± 0.28 | 97.5 ± 5.9 | 98.7 ± 0.28 | 100 ± 2.3 | 100 ± 1.3 | 101 ± 0.71 | 101 ± 1.9 | 103 ± 2.5 | 94.8 ± 4.5 | 102 ± 0.49 | 95.6 ± 1.8 | 101 ± 1.3 | 95.2 ± 2.6 | 93.4 ± 0.57 | 101 ± 4.5 | 96.5 ± 5.7 | 89 ± 0.99 | 96 ± 4.8 | 94.2 ± 3 | 101 ± 3 | > 10 | > 10 | > 10 | > 10 | > 10
CC(C)(Oc1ccc(C2CC2(Cl)Cl)cc1)C(=O)O (stereo not given) [ciprofibrate] | 0 | 0 | 0 | 0 | 0 | 94.1 | 94.4 | 93.4 | 97.2 | 108 | 96.3 | 106 | 99.2 | 96.1 | 100 | 93.2 | 98.3 | 99.6 | 94.7 | 91.7 | 101 | 93.5 | 103 | 86.7 | 102 | 104 | 98.1 | 96.5 | 93.7 | 95.9 | > 10 | > 10 | > 10 | > 10 | > 10
NC(=O)NCCC[C@H](N)C(=O)O [L-citrulline] | 0 | 0 | 0 | 0 | 0 | 98.6 | 96 | 97.2 | 97.8 | 102 | 100 | 95.2 | 92.7 | 91.4 | 94 | 98.7 | 102 | 95.5 | 105 | 95.6 | 99 | 104 | 92.3 | 101 | 92.4 | 101 | 92.2 | 98.6 | 96.9 | 110 | > 10 | > 10 | > 10 | > 10 | > 10
CCOc1cc(/C=C2/C(=O)N(c3ccccc3)N=C2C)cc(Cl)c1OCC(=O)OC | 0 | 0 | 0 | 0 | 0 | 104 | 106 | 103 | 102 | 97.7 | 96.5 | 101 | 96.1 | 98.3 | 91.6 | 102 | 100 | 98.2 | 96.2 | 99.4 | 102 | 108 | 92.4 | 92.9 | 97.4 | 92.9 | 95.9 | 105 | 94.8 | 108 | > 10 | > 10 | > 10 | > 10 | > 10
